# Calls of active or inactive are those of the source.
# Key:
# Vero = assay: cells; type: functional; conditions: Chlorocebus sabaeus
# Cytochrome P450 2C9 = Cytochrome P450 2C9 (Homo sapiens, UniProt P11712)
# Cytochrome P450 2D6 = Cytochrome P450 2D6 (Homo sapiens, UniProt P10635);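 note: CYP2D6 member of a cytochrome P450 panel assay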
# Cytochrome P450 1A2 = target: T1, Cytochrome P450 1A2 (Homo sapiens, UniProt P05177);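 note: PubChem cytochrome P450 panel assay, CYP1A2 panel member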
# T1 sequence (P05177 whole entry): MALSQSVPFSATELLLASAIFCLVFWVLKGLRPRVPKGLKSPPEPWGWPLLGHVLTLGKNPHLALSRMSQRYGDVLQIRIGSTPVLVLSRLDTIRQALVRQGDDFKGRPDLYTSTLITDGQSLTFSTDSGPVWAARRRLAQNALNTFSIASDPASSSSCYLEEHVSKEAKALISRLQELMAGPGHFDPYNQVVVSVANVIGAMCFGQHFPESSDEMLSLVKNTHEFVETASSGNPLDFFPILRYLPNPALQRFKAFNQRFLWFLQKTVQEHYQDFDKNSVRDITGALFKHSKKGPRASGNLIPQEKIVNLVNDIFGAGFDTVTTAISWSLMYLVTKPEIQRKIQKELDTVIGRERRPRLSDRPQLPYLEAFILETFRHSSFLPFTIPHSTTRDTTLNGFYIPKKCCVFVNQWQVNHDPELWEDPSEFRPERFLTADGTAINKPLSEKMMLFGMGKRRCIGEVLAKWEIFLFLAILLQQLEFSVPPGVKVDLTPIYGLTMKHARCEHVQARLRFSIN
# [1] = target: T2, Adenosylmethionine-8-amino-7-oxononanoate aminotransferase (Mycobacterium tuberculosis, UniProt P9WQ81); assay: Mycobacterium tuberculosis BioA enzyme inhibitor Measured in Biochemical System Using Plate Reader - 2163-02_Inhibitor_Dose_CherryPick_Activity.; type: functional, Mycobacterium tuberculosis UT205
# T2 sequence (P9WQ81 whole entry): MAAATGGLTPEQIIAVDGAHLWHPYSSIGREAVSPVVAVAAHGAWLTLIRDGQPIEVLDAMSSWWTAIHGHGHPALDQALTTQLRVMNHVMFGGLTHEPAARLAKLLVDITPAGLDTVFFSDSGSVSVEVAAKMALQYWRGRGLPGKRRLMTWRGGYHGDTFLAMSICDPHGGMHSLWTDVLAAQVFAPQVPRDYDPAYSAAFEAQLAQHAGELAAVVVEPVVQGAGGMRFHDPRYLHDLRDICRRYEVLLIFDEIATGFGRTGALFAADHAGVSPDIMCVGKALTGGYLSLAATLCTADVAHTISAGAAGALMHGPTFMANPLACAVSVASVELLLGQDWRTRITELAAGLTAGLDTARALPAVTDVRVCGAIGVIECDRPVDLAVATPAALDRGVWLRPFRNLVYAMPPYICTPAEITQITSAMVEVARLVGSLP
# [2] = Luminescence Cell-Based Dose Retest to Confirm Inhibitors of Cancer Stem Cells. [Related pubchem assays (depositor defined):AID2717, AID2721]; type: functional; conditions: Homo sapiens
# Paired box protein Pax-8 = Paired box protein Pax-8 (Homo sapiens, UniProt Q06710); assay: inhibitors of PAX8-driven TPO luciferase reporter, dose response, RMG-I cells, cherry-pick (AID 687027); type: functional, cell-based;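 note: luciferase reporter driven by Pax8 target thyroperoxidase promoter measured by SteadyGlo luminescence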
# [3] = intracellular Trypanosoma cruzi inhibitors in host cells – cell-based, plate reader, cherry-pick samples, set 3, dose response (AID 651818); type: functional;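 note: compounds incubated with infected cells for about four days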
# [4] = target: T3, Mitochondrial peptide methionine sulfoxide reductase (Bos taurus, UniProt P54149); type: functional;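 note: absorbance read-out, biochemical high-throughput dose-response screen for MsrA inhibitors, confirmatory; recombinant bovine MsrA coupled to E. coli TrxB with NADPH and selenocystamine; potency is for inhibitors of MsrA activity on DMSO substrate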
# T3 sequence (P54149 whole entry): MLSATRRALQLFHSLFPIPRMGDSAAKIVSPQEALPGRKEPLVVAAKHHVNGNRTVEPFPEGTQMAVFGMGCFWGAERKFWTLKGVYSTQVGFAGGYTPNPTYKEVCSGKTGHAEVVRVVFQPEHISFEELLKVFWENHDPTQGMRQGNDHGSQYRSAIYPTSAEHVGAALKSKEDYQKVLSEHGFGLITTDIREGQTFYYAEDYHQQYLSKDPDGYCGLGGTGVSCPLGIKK
# Caspase-6 = target: T4, Caspase-6 (Homo sapiens, UniProt P55212); assay: human caspase-6 inhibitors, dose response, biochemical, VEID-R110 fluorescence, cherry-pick (AID 720632)
# T4 sequence (P55212 whole entry): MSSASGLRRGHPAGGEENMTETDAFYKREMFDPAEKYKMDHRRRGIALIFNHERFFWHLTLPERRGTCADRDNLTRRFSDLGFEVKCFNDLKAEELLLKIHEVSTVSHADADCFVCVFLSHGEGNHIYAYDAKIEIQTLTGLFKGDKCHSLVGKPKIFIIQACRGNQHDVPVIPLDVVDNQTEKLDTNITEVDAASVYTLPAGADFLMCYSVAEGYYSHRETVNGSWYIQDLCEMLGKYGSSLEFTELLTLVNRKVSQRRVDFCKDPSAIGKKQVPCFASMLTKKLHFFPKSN
# HEK293 [5] = assay: cells; conditions: Homo sapiens
# HEK293 [6] = assay: cells; conditions: Homo sapiens; remark: listed apart in the source
# CHO = assay: cytotoxicity in TLR9-MyD88 CHO cells, dose response, cytotoxicity control for TLR9-MyD88 binding inhibitor project, cell-based, luminescence (AID 588339); type: functional, hamster; conditions: Cricetulus griseus;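 note: CHO cells stably coexpressing TLR9 and MyD88 fusions from primary screen; compound exposure lasted 48 hours before viability readout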
# Beta Lactamase = Beta Lactamase (Pseudomonas aeruginosa, UniProt Q932Y6); assay: beta-lactamase reporter inhibitor potency, dose response, artefact control for TLR9-MyD88 binding inhibitor project, BLA reporter cells, FRET fluorescence (AID 588341); type: cell-based;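 note: cell based assay in CHO-K1 cells stably expressing beta-lactamase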
# [7] = StAR promoter reporter inhibition counter-screen, dose response, counter-screen for LRH-1 inverse agonist project, cell-based, luminescence, luciferase reporter (AID 651969); type: functional
# [8] = target: Nuclear receptor subfamily 5 group A member 2 (Homo sapiens, UniProt O00482); type: functional, cell-based;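 note: HEK293T cells transfected with LRH-1 and a StAR promoter luciferase reporter; potency for inhibitors that lower LRH-1 driven reporter light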
# Steroidogenic factor 1 = Steroidogenic factor 1 (Homo sapiens, UniProt Q13285); assay: Counterscreen for inverse agonists of the liver receptor homolog-1 (LRH-1; NR5A2): Luminescence-based cell-based high throughput dose response assay to identify inverse agonists of the Steroidogenic Factor 1 Nuclear Receptor (SF1; NR5A1).; type: functional
# Sequence of Steroidogenic factor 1 (Q13285 whole entry): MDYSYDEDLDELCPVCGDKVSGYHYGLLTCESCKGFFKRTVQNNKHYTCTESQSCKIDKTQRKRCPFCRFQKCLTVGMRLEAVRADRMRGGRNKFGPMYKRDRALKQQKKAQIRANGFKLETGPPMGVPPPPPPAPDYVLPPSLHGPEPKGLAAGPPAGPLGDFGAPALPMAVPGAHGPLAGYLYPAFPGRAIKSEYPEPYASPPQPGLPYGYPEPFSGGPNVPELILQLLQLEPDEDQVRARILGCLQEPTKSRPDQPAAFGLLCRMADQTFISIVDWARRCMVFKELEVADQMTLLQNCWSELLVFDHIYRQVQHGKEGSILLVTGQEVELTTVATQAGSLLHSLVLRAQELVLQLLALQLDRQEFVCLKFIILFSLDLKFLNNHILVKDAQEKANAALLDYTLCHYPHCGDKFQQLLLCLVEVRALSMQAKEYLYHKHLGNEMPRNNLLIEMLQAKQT
# Sequence of Paired box protein Pax-8 (Q06710 whole entry): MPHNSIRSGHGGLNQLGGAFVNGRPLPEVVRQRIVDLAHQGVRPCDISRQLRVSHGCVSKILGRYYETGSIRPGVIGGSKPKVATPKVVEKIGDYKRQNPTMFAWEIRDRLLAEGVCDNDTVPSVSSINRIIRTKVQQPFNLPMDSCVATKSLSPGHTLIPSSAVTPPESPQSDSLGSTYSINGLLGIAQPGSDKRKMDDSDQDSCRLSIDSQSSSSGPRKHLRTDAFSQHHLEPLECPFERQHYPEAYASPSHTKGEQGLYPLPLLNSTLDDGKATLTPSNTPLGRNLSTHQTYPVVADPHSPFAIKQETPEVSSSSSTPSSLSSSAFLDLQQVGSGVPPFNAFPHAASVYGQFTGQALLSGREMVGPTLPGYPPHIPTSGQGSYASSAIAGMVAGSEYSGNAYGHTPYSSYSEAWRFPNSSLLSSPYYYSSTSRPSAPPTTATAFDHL
# Sequence of Cytochrome P450 2D6 (P10635 whole entry): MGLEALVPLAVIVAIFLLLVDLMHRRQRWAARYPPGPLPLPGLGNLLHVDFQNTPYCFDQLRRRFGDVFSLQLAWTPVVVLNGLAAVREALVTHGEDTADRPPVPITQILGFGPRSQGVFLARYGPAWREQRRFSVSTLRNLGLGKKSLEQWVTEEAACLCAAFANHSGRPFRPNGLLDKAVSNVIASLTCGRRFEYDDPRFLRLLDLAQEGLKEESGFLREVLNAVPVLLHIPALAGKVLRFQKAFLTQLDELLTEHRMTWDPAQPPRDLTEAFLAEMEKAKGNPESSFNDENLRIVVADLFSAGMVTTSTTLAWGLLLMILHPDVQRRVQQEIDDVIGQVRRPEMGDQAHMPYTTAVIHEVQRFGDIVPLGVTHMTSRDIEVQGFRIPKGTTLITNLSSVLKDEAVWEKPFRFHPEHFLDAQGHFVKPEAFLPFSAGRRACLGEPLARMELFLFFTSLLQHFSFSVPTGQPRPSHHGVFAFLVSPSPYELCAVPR
# Sequence of Beta Lactamase (Q932Y6 whole entry): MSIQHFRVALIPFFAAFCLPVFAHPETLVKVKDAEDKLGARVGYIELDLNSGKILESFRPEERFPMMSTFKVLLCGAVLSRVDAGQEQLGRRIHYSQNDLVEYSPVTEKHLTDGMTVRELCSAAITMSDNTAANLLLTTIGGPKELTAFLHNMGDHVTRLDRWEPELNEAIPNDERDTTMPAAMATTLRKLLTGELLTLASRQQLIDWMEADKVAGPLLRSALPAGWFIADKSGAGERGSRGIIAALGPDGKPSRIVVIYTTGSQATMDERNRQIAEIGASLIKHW
# Sequence of Cytochrome P450 2C9 (P11712 whole entry): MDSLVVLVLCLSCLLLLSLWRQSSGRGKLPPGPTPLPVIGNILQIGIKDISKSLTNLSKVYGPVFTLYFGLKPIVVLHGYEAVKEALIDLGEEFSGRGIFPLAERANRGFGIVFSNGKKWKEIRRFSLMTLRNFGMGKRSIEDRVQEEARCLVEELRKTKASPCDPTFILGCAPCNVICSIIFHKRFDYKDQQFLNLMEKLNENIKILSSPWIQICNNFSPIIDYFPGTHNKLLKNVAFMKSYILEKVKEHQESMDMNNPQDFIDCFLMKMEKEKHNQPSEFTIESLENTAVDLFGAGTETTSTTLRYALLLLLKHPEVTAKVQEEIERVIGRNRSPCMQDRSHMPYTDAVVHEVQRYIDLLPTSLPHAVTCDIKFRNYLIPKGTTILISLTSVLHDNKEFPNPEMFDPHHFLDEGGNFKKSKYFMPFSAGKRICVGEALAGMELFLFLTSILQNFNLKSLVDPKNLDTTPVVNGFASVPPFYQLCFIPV
# Sequence of Nuclear receptor subfamily 5 group A member 2 (O00482 whole entry): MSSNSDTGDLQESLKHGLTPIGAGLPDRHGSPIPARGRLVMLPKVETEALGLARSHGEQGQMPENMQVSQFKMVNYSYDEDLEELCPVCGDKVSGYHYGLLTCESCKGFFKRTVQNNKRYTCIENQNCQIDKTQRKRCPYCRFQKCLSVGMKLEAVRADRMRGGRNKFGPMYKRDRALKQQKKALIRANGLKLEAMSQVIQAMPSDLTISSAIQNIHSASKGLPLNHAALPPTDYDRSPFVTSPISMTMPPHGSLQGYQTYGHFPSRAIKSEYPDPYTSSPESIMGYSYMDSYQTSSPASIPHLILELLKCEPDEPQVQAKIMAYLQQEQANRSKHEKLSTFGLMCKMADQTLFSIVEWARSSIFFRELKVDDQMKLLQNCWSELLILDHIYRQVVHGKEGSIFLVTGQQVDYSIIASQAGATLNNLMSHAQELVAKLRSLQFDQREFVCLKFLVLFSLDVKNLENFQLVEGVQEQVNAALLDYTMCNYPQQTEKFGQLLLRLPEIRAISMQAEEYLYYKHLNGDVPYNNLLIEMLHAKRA
smiles,measurement,setting,value
S=C1SCN(Cc2ccccn2)CN1Cc1ccco1,CC50,Vero,24 µM (active)
same,AC50,Cytochrome P450 2C9,14.1 µM (inconclusive)
same,AC50,Cytochrome P450 2D6,17.8 µM (inconclusive)
same,AC50,Cytochrome P450 1A2,11.2 µM (inconclusive)
CCN(CC)S(=O)(=O)c1ccc(NC(=O)c2ccc(Cl)nc2)cc1,AC50,[1],6.89 µM (active)
C[C@@H]1CN([C@@H](C)CO)C(=O)Cc2cc(NC(=O)Nc3ccc(C(F)(F)F)cc3)ccc2O[C@@H]1CN(C)S(=O)(=O)c1ccc(Cl)cc1,AC50,[2],1.28 µM (active)
same,AC50,Paired box protein Pax-8,10.3 µM (active)
same,AC50,[3],3.51 µM (active)
C=CCC[C@@H](Cc1ccc(F)cc1)C(=O)OC[C@@H](Cc1c[nH]c2ccccc12)NC(=O)[C@@H](CC=C)CC(=O)N(CCO)Cc1ccccc1,CC50,Vero,15.5 µM (active)
same,AC50,[2],5.96 µM (active)
Cn1cnc([N+](=O)[O-])c1S(=O)(=O)Nc1ccccc1,IC50,[4],52.8 µM (inactive)
same,AC50,Caspase-6,9.66 µM (active)
CC1(Cc2ccc(C(F)(F)F)nc2)C(=O)Nc2cc(-c3ccccc3Cl)ccc21 (configuration not stated),EC50,HEK293 [5],> 59.6 µM (inactive)
same,EC50,HEK293 [6],> 59.6 µM (inactive)
Cc1cccc(C)c1-n1c(C)cc(/C=N\Nc2ccc([N+](=O)[O-])cn2)c1C,IC50,CHO,> 49.8 µM (inactive)
same,IC50,Beta Lactamase,4.04 µM (active)
Cc1noc(C)c1S(=O)(=O)Nc1ccc2c(c1)C(=O)N([C@H](C)CO)C[C@H](C)[C@H](CN(C)C(=O)Nc1ccc(C(F)(F)F)cc1)O2,AC50,[3],4.97 µM (active)
C[C@H](CO)N1C[C@H](C)[C@H](CN(C)Cc2ccc(C(=O)Nc3ccccc3N)cc2)Oc2c(NS(=O)(=O)c3cccs3)cccc2C1=O,AC50,[3],1.87 µM (active)
CCCCNc1c(-c2ccc(-c3ccc(OC)cc3)c(OC)c2)nc2ccccn12,CC50,Vero,> 25 µM (active)
Cc1no[n+]([O-])c1COc1ccc(/C=N/n2nnnc2N)cc1,IC50,[7],35.9 µM (inactive)
same,IC50,[8],35.9 µM (inactive)
same,IC50,Steroidogenic factor 1,12 µM (inactive)

# Source: ChEMBL document CHEMBL1201862, “PubChem BioAssay data set” (2004)
